From US20230061432A1, “NEW TECHNOLOGY TO CONJUGATE THE TACCALONOLIDE MICROTUBULE STABILIZERS WITH LINKERS/PAYLOADS” (priority 2019, published 2023)

How the values were obtained:
HeLa cells = assay: sulforhodamine B (SRB) antiproliferative assay; assay type: cell-based, human; conditions: 48 h; mean ± SEM; read-out: GI50, concentration that causes a 50% decrease in proliferation, HeLa
Text: (§1) HCC1806 (CRL-2335) and HCC1937 (CRL-2336) human triple-negative breast cancer cells, HeLa (CCL-2) cervical cancer cells and SK-OV-3 (HTB-77) ovarian cancer cells were obtained from ATCC (Manassas, Va.) and validated by STR profiling (Genetica). SK-OV-3 cells stably overexpressing Pgp by adenoviral-mediated expression of MDR1 were obtained from Dr. Susan Kane and subcloned by limiting dilution to isolate the single-cell clones utilized in these studies as SK-OV-3-MDR-1-6/6 (Risinger, A. L. et al. (2008) Cancer Res. 68, 8881-8888). A single-cell clone from transfection of HeLa cells with βIII-tubulin, designated wild type βIII, was constructed and obtained from Dr. Richard Luduena (Risinger, A. L. et al. (2008) Cancer Res. 68, 8881-8888). HCC1806 and HCC1937 cells were cultured in RPMI 1640 media (Corning) with 10% FBS (Cellgro) and 50 μg/mL gentamicin (Gibco). HeLa, […] expressing HeLa, SK-OV-3 and SK-OV-3/MDR-1-6/6 cells were grown in BME media with Earle's salts (Gibco) with 10% FBS, 1× final 1% GlutaMax™ Supplement (Gibco), and […] gentamicin. The use of HeLa cells allows for the direct comparison of the in vitro potency as compared to other compounds of this class, which have been predominantly reported in this line and compound potencies are consistent among three additional cancer cell lines. HeLa cells were also used for ectopic expression of tubulin mutants due to the high degree of transfectability of this cell line. Cells were tested for mycoplasma contamination using the Mycoplasma Detection Kit-Quick Test (Cat: B39032, Lot: JW004).
(§2) The sulforhodamine B (SRB) assay was utilized to examine the antiproliferative and cytotoxic effects of the compounds (Skehan, P. et al. (1990) J. Natl. Cancer Inst. 82, 1107-1112; Vichai and Kirtikara (2006) Nat. Protoc. 1, 1112-1116). Approximately 2,000 cells per well (for SK-OV-3, HeLa and βIII-tubulin expressing HeLa) or 4,000 cells per well (for HCC1806 and HCC1937) were seeded in 96-well plates. For each biological replicate, cells were treated in triplicate with each concentration of compound or vehicle control for 48 h in a final volume of 200 μL. The plates were fixed with 10% trichloroacetic acid for protein precipitation of adherent cells and then washed with distilled water. 100 μL of SRB dye, which binds protein stoichiometrically, was added and then unbound dye removed with 1% acetic acid followed by the addition of 200 μL 10 mM Tris to solubilize the dye, which was quantified by absorbance at 560 nm. The percent growth of treated cells relative to the density at the time of drug addiction was calculated as compared to vehicle treated cells.

SK-OV-3 cells = assay: sulforhodamine B (SRB) antiproliferative assay; assay type: cell-based, human; conditions: 48 h; mean ± SEM; read-out: GI50, concentration that causes a 50% decrease in proliferation, SK-OV-3
Text: as §1, §2

[1] = biological target: T1, purified porcine brain tubulin (Sus scrofa, UniProt P02554); assay: biochemical tubulin polymerization assay; conditions: tubulin 20 μM
T1 construct: purified porcine brain tubulin (Cytoskeleton); purchased Cytoskeleton; host or cells: porcine brain
Description: Exemplary results of the […] tubulin polymerization assay are illustrated in FIG. 3, FIG. 4B, and FIG. 5B and were obtained as described in Risinger et al., Cancer Research, 2013.
Biochemical tubulin polymerization assays were performed using purified porcine brain tubulin (Cytoskeleton). In individual wells of a 96-well plate, 1 μL of each 100× drug stock was incubated with 20 μM porcine brain tubulin in GPEM glycerol buffer (1 mM GTP, 10% glycerol, 80 mM PIPES pH 6.9, 2 mM MgCl2 and 0.5 mM EGTA) in a final volume of 100 μL. Pure porcine tubulin was prepared on ice at 4° C. to inhibit tubulin polymerization until the assay was initiated, while the plate reader was pre-warmed to 37° C. Tubulin polymerization was measured every minute for an hour by light scattering at 340 nm in a Spectramax plate reader using SoftMax software (Molecular Devices). Light scattering was normalized to the initial measurement for each well. For the probe-tubulin binding assay, samples were prepared on ice in tubes instead of a 96 well plate, and moved to a 37° C. heat block to initiate binding and polymerization. The time zero (0′) sample consisted of tubulin polymerization buffer prior to addition of taccalonolide probe. […]

T1 sequence (P02554 whole entry): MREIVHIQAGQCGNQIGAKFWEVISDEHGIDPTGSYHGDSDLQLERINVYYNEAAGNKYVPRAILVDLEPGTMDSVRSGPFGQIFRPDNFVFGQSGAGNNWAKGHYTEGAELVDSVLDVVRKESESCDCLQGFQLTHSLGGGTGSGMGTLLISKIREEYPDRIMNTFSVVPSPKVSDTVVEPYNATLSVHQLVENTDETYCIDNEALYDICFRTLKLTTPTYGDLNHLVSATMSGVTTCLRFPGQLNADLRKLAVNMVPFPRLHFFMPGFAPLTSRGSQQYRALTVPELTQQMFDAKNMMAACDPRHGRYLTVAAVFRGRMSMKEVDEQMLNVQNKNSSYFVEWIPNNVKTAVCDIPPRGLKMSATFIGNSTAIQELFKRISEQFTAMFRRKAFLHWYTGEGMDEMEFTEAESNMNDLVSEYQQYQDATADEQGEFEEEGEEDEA
T1 sequence (P02550 whole entry partner): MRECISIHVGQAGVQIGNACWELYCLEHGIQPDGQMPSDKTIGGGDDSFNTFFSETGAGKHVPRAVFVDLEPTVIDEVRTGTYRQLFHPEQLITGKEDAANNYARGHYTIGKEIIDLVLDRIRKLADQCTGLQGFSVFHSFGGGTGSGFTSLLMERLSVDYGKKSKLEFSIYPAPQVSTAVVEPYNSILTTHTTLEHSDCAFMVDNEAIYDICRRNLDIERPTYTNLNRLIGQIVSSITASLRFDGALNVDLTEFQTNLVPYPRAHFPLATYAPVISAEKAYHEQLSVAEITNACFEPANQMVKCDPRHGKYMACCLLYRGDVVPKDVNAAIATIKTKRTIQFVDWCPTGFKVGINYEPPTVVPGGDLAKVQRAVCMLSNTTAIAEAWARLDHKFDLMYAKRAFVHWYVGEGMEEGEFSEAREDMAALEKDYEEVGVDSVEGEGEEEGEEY

**Q.** With `CC(=O)O[C@H]1[C@H]2[C@H]([C@@H]3[C@@H](O)[C@@H]4[C@H]([C@H](C)[C@@H]5O[C@@]56OC(=O)[C@@](C)(O)[C@]46C)[C@@]3(C)[C@H]1OC(C)=O)[C@@H](O)C(=O)[C@H]1C[C@@H]3O[C@@H]3[C@H](OC(C)=O)[C@]21C` [compound 2, taccalonolide AJ, reference compound] as the compound, how does the GI50 (HeLa cells) read?
**A.** 8.5 nM

**Q.** What about the GI50 (SK-OV-3 cells) of the same compound?
**A.** 6.2 nM

**Q.** And the “concentration range promoting polymerization of purified tubulin” value [1]?
**A.** 5 to 20 µM
